Assay results taken from patent US9221835B2, “Spirocyclic derivatives as antiparasitic agents” (Zoetis Services LLC, priority 2012, dated 2015).

Legend:
Type in all cases: in vivo
[1] = test system: Flea (Ctenocephalides felis); test: Flea (Ctenocephalides felis) Membrane Feed Assay-Adult; conditions: adult fleas fed on treated citrated bovine blood for 24 hours, lowest dose to cause mortality ≧50%, half-log intervals, read-out: Minimum Effective Concentration (MEC)
Method: Flea (Ctenocephalides felis) Membrane Feed Assay-Adult
Compounds were dissolved in DMSO and aliquots were added to citrated bovine blood in membrane covered wells warmed to 37° C. Adult fleas were newly emerged (3-7 days) and unfed. Feeding wells containing approximately 10 adult fleas were placed onto the treated blood wells, and the fleas were allowed to feed on the treated blood for 24 hours. […] Each compound was tested at half-log intervals, and endpoint data was recorded as Minimum Effective Concentration in μM. MEC is a subjective visual assessment of organism viability, and is the lowest dose to cause mortality ≧50%.

[2] = test system: Mosquito (Aedes aeqypti) larvae; test: Mosquito (Aedes aeqypti) Larval Assay; conditions: first instar larvae, 25° C., 24 hours, lowest dose to inhibit motility ≧50% of untreated controls, half-log intervals, read-out: Minimum Effective Concentration (MEC)
Method: Mosquito (Aedes aeqypti) Larval Assay
Compounds were dissolved in DMSO and aliquots were spotted to empty wells. First instar mosquito larvae and maintenance media were added to the wells to obtain between 8 and 15 larvae per well in the appropriate final assay volume. Larvae were incubated in the treated media at 25° C. for 24 hours. Mosquito larvae motility was measured at 24 hours. Each compound was tested at half-log intervals, and endpoint results were recorded as Minimum Effective Concentration (MEC) in μM. MEC is an objective assessment of organism motility, and is the lowest dose to inhibit motility ≧50% of untreated controls.

[3] = test system: Soft Tick (Ornithidorus turicata); test: Soft Tick (Ornithidorus turicata) Blood Feed Assay; conditions: nymph stage ticks fed on treated citrated bovine blood; paralysis and/or death observed at approximately 24, 48 and 72 hours
Method: Soft Tick (Ornithidorus turicata) Blood Feed Assay
Compounds of the present invention were dissolved in dimethylsulfoxide (DMSO) and aliquots added to citrated bovine blood in a membrane covered Petri dish. The Petri dish is placed on a warming tray. Approximately 5 nymph stage ticks are placed onto the membrane, covered, and left to feed. Fed ticks are removed and placed into a Petri dish with sand. […] Endpoint data was recorded as a 100% lethal dose (LD^100) in μg/mL.

| SMILES | minimal effective concentration [1] | minimal effective concentration [2] | 100% lethal dose (LD100) [3] |
| --- | --- | --- | --- |
| CS(=O)(=O)CC(=O)N1CC2(C1)OCc1cc(C3=NCC(c4cc(Cl)c(Cl)c(Cl)c4)(C(F)(F)F)C3)ccc12 (stereo not drawn) [Example 1, 2-(methylsulfonyl)-1-(5′-(3-(3,4,5-trichlorophenyl)-3-(trifluoromethyl)-3,4-dihydro-2H-pyrrol-5-yl)-3′H-spiro[azetidine-3,1′-isobenzofuran]-1-yl)ethanone] | 0.3 µM | 0.1 µM | 0.03 µg/mL |
| CC(C)C(=O)N1CC2(C1)OCc1cc(C3=NCC(c4cc(Cl)cc(Cl)c4)(C(F)(F)F)C3)ccc12 (stereo not drawn) [Example 6, 5′-(3-(3,5-dichlorophenyl)-3-(trifluoromethyl)-3,4-dihydro-2H-pyrrol-5-yl]-1-isobutyryl-3′H-spiro[azetidine-3,1′-[2]benzofuran]] | 1 µM | 0.1 µM | 0.03 µg/mL |
| CS(=O)(=O)CC(=O)N1CC2(C1)OCc1cc(C3=NNC(c4cc(Cl)c(F)c(Cl)c4)(C(F)(F)F)C3)ccc12 (stereo not drawn) [Example 13, 1-(5′-(5-(3,5-dichloro-4-fluorophenyl)-5-(trifluoromethyl)-4,5-dihydro-1H-pyrazol-3-yl)-3′H-spiro[azetidine-3,1′-isobenzofuran]-1-yl)-2-(methylsulfonyl)ethanone] | ≥ 3 µM | 0.1 µM | 0.03 µg/mL |
| CS(=O)(=O)CC(=O)N1CC2(C1)OCc1cc(N3CCC(c4cc(Cl)c(F)c(Cl)c4)(C(F)(F)F)C3)ccc12 (stereo not drawn) [Example 22, 1-(5-(3-(3,5-dichloro-4-fluorophenyl)-3-(trifluoromethyl)pyrrolidin-1-yl)-3′H-spiro[azetidine-3,1′-isobenzofuran]-1-yl)-2-(methylsulfonyl)ethanone] | ≥ 3 µM | > 3 µM | 0.03 µg/mL |
| CS(=O)(=O)CC(=O)N1CC2(C1)OCc1cc(N3CCC(c4cc(Cl)c(Cl)c(Cl)c4)(C(F)(F)F)C3)ccc12 (stereo not drawn) [Example 26, 5′-[3-(3,4,5-trichloro)-3-(trifluoromethyl)pyrrolidin-1-yl]-1-[(methylsulfonyl)acetyl]-3′H-spiro[azetidine-3,1′-[2]benzofuran]] | ≥ 3 µM | > 3 µM | 0.1 µg/mL |
| CC(C)C(=O)N1CC2(C1)OCc1cc(C3=NOC(c4cc(Cl)c(F)c(Cl)c4)(C(F)(F)F)O3)ccc12 (stereo not drawn) [Example 28, 1-(5′-(5-(3,5-dichloro-4-fluorophenyl)-5-(trifluoromethyl)-1,4,2-dioxazol-3-yl)-3′H-spiro[azetidine-3,1′-isobenzofuran]-1-yl)-2-methyl propan-1-one] | ≥ 3 µM | 0.3 µM | 0.1 µg/mL |
| CC(C)C(=O)N1CC2(C1)OCc1cc(C3=NOC(c4cc(Cl)c(Cl)c(Cl)c4)(C(F)(F)F)O3)ccc12 (stereo not drawn) [Example 31] | ≥ 3 µM | 0.3 µM | 0.3 µg/mL |
